Measured values published in ChEMBL document CHEMBL4715846, “Discovery of novel 9-heterocyclyl substituted 9H-purines as L858R/T790M/C797S mutant EGFR tyrosine kinase inhibitors” (Eur J Med Chem, 2020).
One block for each compound: values may come before it. Calls of active or inactive are those of the source. No cut-off for these calls is given here.

Columns and labels:
HCC827 [1] = experiment: Antiproliferative activity against human HCC827 cells incubated for 72 hrs by MTT assay; assay type: functional, cell-based; details: HCC827, 72 h
NCI-H1975 = experiment: Antiproliferative activity against human NCI-H1975 cells incubated for 72 hrs by MTT assay; assay type: functional, cell-based; details: NCI-H1975, 72 h
A549 = experiment: Antiproliferative activity against human A549 cells incubated for 72 hrs by MTT assay; assay type: functional, cell-based; details: A549, 72 h
A-431 = experiment: Antiproliferative activity against human A-431 cells incubated for 72 hrs by MTT assay; assay type: functional, cell-based; details: A-431, 72 h
[2] = molecular target: Epidermal growth factor receptor (Homo sapiens, UniProt P00533, C797S/L858R/T790M); experiment: Inhibition of EGFR L858R/T790M/C797S (unknown origin) using Poly (Glu, Tyr) as substrate measured after 40 mins by kinase-glo assay
[3] = molecular target: Epidermal growth factor receptor (Homo sapiens) (UniProt P00533); experiment: Inhibition of EGFR phosphorylation in human HCC827 cells measured after 8 hrs by Western blot analysis; assay type: cell-based
[4] = molecular target: Epidermal growth factor receptor (Homo sapiens) (UniProt P00533); experiment: Inhibition of EGFR phosphorylation in human NCI-H1975 cells measured after 8 hrs by Western blot analysis; assay type: cell-based
[5] = molecular target: Epidermal growth factor receptor (Homo sapiens) (UniProt P00533); experiment: Inhibition of EGFR phosphorylation in human A549 cells measured after 8 hrs by Western blot analysis; assay type: cell-based
HCC827 [6] = experiment: Induction of apoptosis in human HCC827 cells assessed as viable cells at 1 uM measured after 24 hrs by Annexin V-FITC/propidium iodide staining based flow cytometry (reference value: 77.08%); assay type: functional; details: read-out: Activity
HCC827 [7] = experiment: Induction of apoptosis in human HCC827 cells assessed as early apoptotic cells at 1 uM measured after 24 hrs by Annexin V-FITC/propidium iodide staining based flow cytometry (reference value: 2.49%); assay type: functional
HCC827 [8] = experiment: Induction of apoptosis in human HCC827 cells assessed as late apoptotic cells at 1 uM measured after 24 hrs by Annexin V-FITC/propidium iodide staining based flow cytometry (reference value: 4.31%); assay type: functional
HCC827 [9] = experiment: Induction of apoptosis in human HCC827 cells assessed as necrotic cells at 1 uM measured after 24 hrs by Annexin V-FITC/propidium iodide staining based flow cytometry (reference value: 6.12%); assay type: functional
HCC827 [10] = experiment: Cell cycle arrest in human HCC827 cells assessed as increase in accumulation at G0/G1 phase at 1 uM measured after 24 hrs by propidium iodide staining based flow cytometry; assay type: functional
HCC827 [11] = experiment: Inhibition of colony formation in human HCC827 cells incubated for 20 days by crystal violet staining based assay; assay type: functional, cell-based; details: time 20.0 day
[12] = Selectivity ratio of IC50 for human HCC827 cells to IC50 for human A549 cells; assay type: functional
[13] = Selectivity ratio of IC50 for human HCC827 cells to IC50 for human A-431 cells; assay type: functional

Chain of Epidermal growth factor receptor (P00533 25-1210 T790M/C797S/L858R limits assumed): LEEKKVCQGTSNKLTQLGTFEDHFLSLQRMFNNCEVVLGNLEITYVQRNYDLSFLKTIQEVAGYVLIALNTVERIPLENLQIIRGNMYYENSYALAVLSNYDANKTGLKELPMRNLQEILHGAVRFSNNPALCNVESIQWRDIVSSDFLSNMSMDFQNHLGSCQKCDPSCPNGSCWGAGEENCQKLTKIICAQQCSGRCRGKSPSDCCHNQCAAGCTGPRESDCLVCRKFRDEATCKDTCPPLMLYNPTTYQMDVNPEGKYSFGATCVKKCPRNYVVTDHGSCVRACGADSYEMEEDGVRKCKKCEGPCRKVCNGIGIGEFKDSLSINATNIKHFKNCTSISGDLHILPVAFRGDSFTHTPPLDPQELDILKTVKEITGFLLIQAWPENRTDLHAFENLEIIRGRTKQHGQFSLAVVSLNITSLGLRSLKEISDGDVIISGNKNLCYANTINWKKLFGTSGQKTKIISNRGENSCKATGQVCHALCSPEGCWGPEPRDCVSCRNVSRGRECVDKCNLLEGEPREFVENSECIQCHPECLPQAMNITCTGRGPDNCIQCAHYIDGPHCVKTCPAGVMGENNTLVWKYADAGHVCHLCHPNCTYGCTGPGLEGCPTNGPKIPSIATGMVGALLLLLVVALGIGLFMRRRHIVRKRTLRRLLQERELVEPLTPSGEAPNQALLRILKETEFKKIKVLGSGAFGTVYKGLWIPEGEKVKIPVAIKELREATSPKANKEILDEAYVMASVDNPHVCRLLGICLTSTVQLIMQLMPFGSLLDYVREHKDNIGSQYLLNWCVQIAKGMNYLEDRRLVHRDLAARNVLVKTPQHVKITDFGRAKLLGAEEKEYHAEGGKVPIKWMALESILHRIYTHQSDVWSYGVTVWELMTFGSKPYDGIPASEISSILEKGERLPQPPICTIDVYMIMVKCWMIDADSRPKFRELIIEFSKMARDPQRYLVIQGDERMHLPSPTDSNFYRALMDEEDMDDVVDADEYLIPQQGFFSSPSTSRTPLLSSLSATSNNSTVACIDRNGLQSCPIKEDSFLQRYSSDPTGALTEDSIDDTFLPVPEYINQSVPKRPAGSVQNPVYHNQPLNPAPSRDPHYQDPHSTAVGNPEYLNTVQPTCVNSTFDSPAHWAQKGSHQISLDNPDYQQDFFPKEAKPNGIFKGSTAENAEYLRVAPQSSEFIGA
Chain of Epidermal growth factor receptor (Homo sapiens) (P00533 whole entry): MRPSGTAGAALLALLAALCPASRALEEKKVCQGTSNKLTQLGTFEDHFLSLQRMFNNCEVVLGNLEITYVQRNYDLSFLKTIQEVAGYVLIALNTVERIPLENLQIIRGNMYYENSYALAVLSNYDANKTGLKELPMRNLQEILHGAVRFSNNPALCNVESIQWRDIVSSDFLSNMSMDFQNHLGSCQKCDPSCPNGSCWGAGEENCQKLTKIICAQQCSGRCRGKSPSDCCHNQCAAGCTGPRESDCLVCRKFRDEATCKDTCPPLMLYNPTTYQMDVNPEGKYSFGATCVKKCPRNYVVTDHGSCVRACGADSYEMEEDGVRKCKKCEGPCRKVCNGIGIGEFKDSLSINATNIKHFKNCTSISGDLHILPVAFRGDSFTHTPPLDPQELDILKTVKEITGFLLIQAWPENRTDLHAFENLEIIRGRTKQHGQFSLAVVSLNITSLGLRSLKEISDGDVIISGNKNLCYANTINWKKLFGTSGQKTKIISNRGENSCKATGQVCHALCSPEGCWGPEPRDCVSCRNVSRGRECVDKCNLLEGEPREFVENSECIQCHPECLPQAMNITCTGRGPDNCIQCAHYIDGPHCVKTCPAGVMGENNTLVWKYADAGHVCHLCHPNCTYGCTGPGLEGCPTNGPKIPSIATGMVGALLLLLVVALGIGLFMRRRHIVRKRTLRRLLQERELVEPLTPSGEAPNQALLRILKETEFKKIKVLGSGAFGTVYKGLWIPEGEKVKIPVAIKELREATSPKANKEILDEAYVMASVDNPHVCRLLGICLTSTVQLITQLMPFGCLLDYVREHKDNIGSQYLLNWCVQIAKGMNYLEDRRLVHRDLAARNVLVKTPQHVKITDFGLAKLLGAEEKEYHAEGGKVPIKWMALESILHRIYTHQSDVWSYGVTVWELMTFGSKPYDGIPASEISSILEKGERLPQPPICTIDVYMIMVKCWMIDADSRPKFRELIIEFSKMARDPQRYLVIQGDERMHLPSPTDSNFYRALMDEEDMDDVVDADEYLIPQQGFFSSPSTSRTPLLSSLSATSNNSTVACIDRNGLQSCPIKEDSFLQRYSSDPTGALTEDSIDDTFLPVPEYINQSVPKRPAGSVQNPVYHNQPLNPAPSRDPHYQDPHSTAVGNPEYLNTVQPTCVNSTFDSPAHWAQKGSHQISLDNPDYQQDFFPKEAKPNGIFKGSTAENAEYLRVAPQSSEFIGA

Compound: CN1CCN(c2ccc(Nc3ncc4nc(Nc5ccc(F)cc5)n([C@@H]5CCNC5)c4n3)cc2)CC1
IC50 (HCC827 [1]): 300 nM

Compound: CN1CCN(c2ccc(Nc3ncc4nc(Nc5ccc(F)cc5)n([C@H]5CCN(C(=O)CO)C5)c4n3)cc2)CC1
IC50 (HCC827 [1]): 380 nM

Compound: CC(=O)N1CC[C@H](n2c(Nc3ccccc3)nc3cnc(Nc4ccc(N5CCN(C)CC5)cc4)nc32)C1
IC50 (HCC827 [1]): 260 nM

Compound: CNC(=O)CN1CC[C@H](n2c(Nc3ccccc3)nc3cnc(Nc4ccc(N5CCN(C)CC5)cc4)nc32)C1
IC50 (HCC827 [1]): 170 nM

Compound: CN1CCN(c2ccc(Nc3ncc4nc(Nc5ccccc5)n([C@H]5CCNC5)c4n3)cc2)CC1
IC50 (HCC827 [1]): 530 nM

Compound: CN1CCN(c2ccc(Nc3ncc4nc(Nc5ccc(F)cc5)n([C@@H]5CCCNC5)c4n3)cc2)CC1
IC50 (HCC827 [1]): 120 nM

Compound: CN1CCN(c2ccc(Nc3ncc4nc(Nc5ccc(F)cc5)n([C@@H]5CCN(C(=O)CO)C5)c4n3)cc2)CC1
IC50 (HCC827 [1]): 350 nM

Compound: CNC(=O)CN1CC[C@H](n2c(Nc3ccc(F)cc3)nc3cnc(Nc4ccc(N5CCN(C)CC5)cc4)nc32)C1
IC50 (HCC827 [1]): 1520 nM
IC50 [2]: 561 nM

Compound: CCOC(=O)CN1CC[C@H](n2c(Nc3ccc(F)cc3)nc3cnc(Nc4ccc(N5CCN(C)CC5)cc4)nc32)C1
IC50 (HCC827 [1]): 1810 nM

Compound: CN1CCN(c2ccc(Nc3ncc4nc(Nc5ccc(F)cc5)n([C@H]5CCNC5)c4n3)cc2)CC1
IC50 (HCC827 [1]): 1220 nM

Compound: CN1CCN(c2ccc(Nc3ncc4nc(Nc5ccc(F)cc5)n([C@H]5CCN(C(=O)OC(C)(C)C)C5)c4n3)cc2)CC1
IC50 (HCC827 [1]): 580 nM
IC50 [2]: 122 nM

Further compounds by falling IC50 (HCC827 [1]), results first:

IC50 (HCC827 [1]): 110 nM
Compound: CN1CCN(c2ccc(Nc3ncc4nc(Nc5ccccc5)n([C@H]5CCN(C(=O)OC(C)(C)C)C5)c4n3)cc2)CC1

IC50 (HCC827 [1]): 66 nM
Compound: CN1CCN(c2ccc(Nc3ncc4nc(Nc5ccc(F)cc5)n([C@@H]5CCCN(C(=O)CO)C5)c4n3)cc2)CC1

IC50 (HCC827 [1]): 65 nM
Compound: CN1CCN(c2ccc(Nc3ncc4nc(Nc5ccccc5)n([C@@H]5CCNC5)c4n3)cc2)CC1

IC50 (HCC827 [1]): 50 nM
Compound: CN1CCN(c2ccc(Nc3ncc4nc(Nc5ccc(F)cc5)n(CCNS(=O)(=O)C5CC5)c4n3)cc2)CC1

IC50 (HCC827 [1]): 38 nM
Compound: CN1CCN(c2ccc(Nc3ncc4nc(Nc5ccc(F)cc5)n([C@H]5CCCNC5)c4n3)cc2)CC1

IC50 (HCC827 [1]): 27 nM
Compound: CN1CCN(c2ccc(Nc3ncc4nc(Nc5ccc(F)cc5)n([C@@H]5CCN(C(=O)OC(C)(C)C)C5)c4n3)cc2)CC1

IC50 (HCC827 [1]): 17 nM
Compound: CN1CCN(c2ccc(Nc3ncc4nc(Nc5ccccc5)n([C@H]5CCN(S(C)(=O)=O)C5)c4n3)cc2)CC1

IC50 (HCC827 [1]): 12 nM
Compound: CN1CCN(c2ccc(Nc3ncc4nc(Nc5ccccc5)n([C@@H]5CCN(C(=O)OC(C)(C)C)C5)c4n3)cc2)CC1

IC50 (HCC827 [1]): 10 nM
Compound: CC(=O)Nc1cccc(-n2c(Nc3ccc(F)cc3)nc3cnc(Nc4ccc(N5CCN(C)CC5)cc4)nc32)c1

IC50 (HCC827 [1]): 8.6 nM
IC50 (NCI-H1975): 1150 nM
IC50 (A549): 1320 nM
IC50 (A-431): 1340 nM
Compound: CN1CCN(c2ccc(Nc3ncc4nc(Nc5ccc(F)cc5)n([C@H]5CCCN(S(=O)(=O)C6CC6)C5)c4n3)cc2)CC1

IC50 (HCC827 [1]): 7.5 nM
IC50 (NCI-H1975): 580 nM
IC50 (A549): 1510 nM
IC50 (A-431): 1670 nM
Compound: CN1CCN(c2ccc(Nc3ncc4nc(Nc5ccc(F)cc5)n(-c5cccc(NC(=O)CO)c5)c4n3)cc2)CC1

IC50 (HCC827 [1]): 7.5 nM
IC50 (NCI-H1975): 580 nM
IC50 (A549): 150 nM
IC50 (A-431): 1670 nM
Compound: CN1CCN(c2ccc(Nc3ncc4nc(Nc5ccc(F)cc5)n([C@H]5CCN(S(=O)(=O)C6CC6)C5)c4n3)cc2)CC1

IC50 (HCC827 [1]): 2.5 nM
IC50 (NCI-H1975): > 10000 nM
IC50 (A549): > 10000 nM
IC50 (A-431): > 10000 nM
IC50 [2]: 22 nM
inhibition [3]: Dose-dependent effect
inhibition [4]: Dose-dependent effect
inhibition [5]: Dose-dependent effect
Compound: CN1CCN(c2ccc(Nc3ncc4nc(Nc5ccc(F)cc5)n([C@@H]5CCN(S(=O)(=O)C6CC6)C5)c4n3)cc2)CC1
viability at 1 µM (HCC827 [6]): 32.5%
Activity (HCC827 [7]): 14.24%
Activity (HCC827 [8]): 45%
Activity (HCC827 [9]): 8.27%
Activity (HCC827 [10]): Active
inhibition (HCC827 [11]): Dose-dependent effect

IC50 (HCC827 [1]): 1.8 nM
IC50 (NCI-H1975): 750 nM
IC50 (A549): 830 nM
IC50 (A-431): 3000 nM
Compound: CN1CCN(c2ccc(Nc3ncc4nc(Nc5ccc(F)cc5)n([C@H]5CCCN(C(=O)CO)C5)c4n3)cc2)CC1
viability at 1 µM (HCC827 [6]): 31.5%
Activity (HCC827 [7]): 16.77%
Activity (HCC827 [8]): 42.63%
Activity (HCC827 [9]): 9.11%
Activity (HCC827 [10]): Active
inhibition (HCC827 [11]): Dose-dependent effect

IC50 (HCC827 [1]): 1.6 nM
IC50 (NCI-H1975): 240 nM
IC50 (A549): 540 nM
IC50 (A-431): 1670 nM
IC50 [2]: 40 nM
inhibition [3]: Dose-dependent effect
inhibition [4]: Dose-dependent effect
inhibition [5]: Dose-dependent effect
Compound: CN1CCN(c2ccc(Nc3ncc4nc(Nc5ccccc5)n([C@H]5CCN(S(=O)(=O)C6CC6)C5)c4n3)cc2)CC1
viability at 1 µM (HCC827 [6]): 31.2%
Activity (HCC827 [7]): 20.47%
Activity (HCC827 [8]): 39.86%
Activity (HCC827 [9]): 8.43%
Activity (HCC827 [10]): Active
inhibition (HCC827 [11]): Dose-dependent effect

IC50 (HCC827 [1]): 0.88 nM
IC50 (NCI-H1975): 200 nM
IC50 (A549): 2910 nM
IC50 (A-431): > 10000 nM
IC50 [2]: 18 nM
inhibition [3]: Dose-dependent effect
inhibition [4]: Dose-dependent effect
inhibition [5]: Dose-dependent effect
Compound: CN1CCN(c2ccc(Nc3ncc4nc(Nc5ccccc5)n([C@@H]5CCN(S(=O)(=O)C6CC6)C5)c4n3)cc2)CC1
Ratio IC50 [12]: 5820
Ratio IC50 [13]: 20000
viability at 1 µM (HCC827 [6]): 28.6%
Activity (HCC827 [7]): 11.22%
Activity (HCC827 [8]): 51.72%
Activity (HCC827 [9]): 8.49%
Activity (HCC827 [10]): Active
inhibition (HCC827 [11]): Dose-dependent effect
